Test results as given in patent US10428076B2, “Soluble guanylate cyclase stimulators” (Merck Sharp & Dohme Corp., priority 2015, dated 2019).

Columns and labels:
[1] = target: sGC α1/β1 heterodimer stably expressed in CHO-K1 cells (CHO-K1/sGC) (Homo sapiens (Human), UniProt Q02108+Q02153); experiment: Cell-based sGC functional assay (Cyclic GMP Assay for sGC Activator: CASA assay); details: for Emax: CHO-K1, activity expressed as a percentage of compound A (standard), read-out: % Activation
From the text: Cell-based sGC Functional Assay (Cyclic GMP Assay for sGC Activator: CASA Assay)
Soluble guanylate cyclase (sGC) is a heme-containing enzyme that converts GTP to secondary messenger cGMP. Increases in cGMP levels affect several physiological processes including vasorelaxation through multiple downstream pathways. […] Heme-dependent activators (HDAs) preferentially activate sGC containing a ferrous heme group. To determine the effect of sGC activators on enzyme activity, the CASA assay was developed to monitor the generation of cGMP in a cell line that stably expresses the heterodimeric sGC protein.
Methods: A CHO-K1 cell line stably expressing the sGC α1/β1 heterodimer was generated using a standard transfection protocol. CHO-K1 cells were transfected with plasmids pIREShyghsGCα1 and pIRESneo-hsGCβ1 simultaneously using FUGENE reagent. Clones that stably express both subunits were selected with hygromycin and neomycin for ˜2 weeks. Clone #7 was chosen for the assay and was designated CHO-K1/sGC. CHO-K1/sGC cells were maintained in F-K12 medium containing 10% heat-inactivated Fetal Bovine Serum (FBS), 100 μg/mL penicillin/streptomycin, 0.5 mg/mL hygromycin and 0.25 mg/mL G418. The cells were then cryopreserved in LN2. On the day of the assay, the cells were thawed and resuspended in EBSS Assay Buffer (Sigma, E3024) supplemented with 5 mM MgCl2, 10 mM HEPES (4-(2-hydroxyethyl)piperazine-1-ethanesulfonic acid) and 0.05% BSA (bovine serum albumin) (EAB) and cell density was then adjusted to 2.25×10^5/mL with EAB. IBMX (3-isobutyl-1-methylxanthin, 0.5 mM) was added to inhibit degradation of cGMP. Compounds were diluted from DMSO stock solutions and added to the assay at a final DMSO concentration of 2.5%. Cells were pre-incubated in the presence and absence of 1 μM of Diethylenetriamine/nitric oxide adduct (DETA-NO; Sigma, 17018) for 30 min at 25° C. Compounds are subsequently added and incubated for 1 hr at 37° C. At the end of the incubation period, the reaction was terminated and the cells were lysed with the detection reagents from Cisbio Kits. The level of intracellular cGMP was determined using an HTRF-based assay kit (CisBio, 62GM2PEC), which detects the displacement of a fluorescence labeled cGMP from its specific antibody. The cGMP produced by test compounds was directly compared to the maximum cGMP production (this value was set to equal 100% activation.) of the published sGC-HDA compound A:
[drawing 491] (Example 1 in WO 2010/065275, published Jun. 10, 2010). The test compounds' activity were then expressed as a percentage of compound A, the standard in every experiment. This percent activation was calculated either in the presence or absence of DETA-NO which was then plotted. Inflection points (IP) and maximum fold induction was derived using Abase analysis software for 4P fit.

[2] = target: human recombinant sGC enzyme (Homo sapiens (Human), UniProt Q02108+Q02153); experiment: Size Exclusion Chromatography (SEC) competition binding assay using [3H] Ex-77B as the radioligand; details: [3H] Ex-77B radioligand, 24 hours at 37° C., 300 μM DETA/NO
Experimental: Binding Assay: The binding potencies of sGC compounds to the human recombinant sGC enzyme were determined in a Size Exclusion Chromatography (SEC) competition binding assay using [^3H] Ex-77B as the radioligand. [^3H] […] The parent (non-labeled) molecule was first iodinated then a Pd-catalyzed iodine to tritium exchange provided the labeled compound. […] Assays were conducted in 96-well plates in a total volume of 200 μL. […] Non-specific binding was defined by competition with 1 μM of Ex-77B. After the incubation period, the binding mixtures were loaded onto the gel-filtration plate (ThermoFischer Cat. No. 89808) pre-equilibrated with binding buffer and spun at 1000×g for 3 min at 4° C. on a Bench top centrifuge. The collected eluates in White Frame Clear Well Isoplates (Perkin Elmer Cat #6005040) received 100 μl of UltimaGold scintillation cocktail. The sealed plates were shaken vigorously and span, and counted after 6 hours with a Wallac Microbeta TriLux 1450 LSC & Luminescence Counter (Perkin Elmer).

Q: `C[C@@]1(c2ccc(CCc3noc(=O)[nH]3)cc2)C(=O)Nc2nc(-c3nn(Cc4ccccc4F)c4cc(Cl)ccc34)nc(N)c21` [Example 256B, (S)-4-Amino-2-[6-chloro-1-(2-fluorobenzyl)-1H-indazol-3-yl]-5-methyl-5-{4-[2-(5-oxo-4,5-dihydro-1,2,4-oxadiazol-3-yl)ethyl]phenyl}-5,7-dihydro-6H-pyrrolo[2,3-d]pyrimidin-6-one] was tested. Which “% Activation” value ([1]; activity expressed as a percentage of compound A (standard)) did it give?
A: 104.4%

Q: With `CC1(c2ccc(CCS(=O)(=O)O)cc2)C(=O)Nc2nc(-c3nn(Cc4ccccc4F)c4cc(Cl)ccc34)nc(N)c21` (single isomer, unassigned) [Example 258B, 2-(4-{4-Amino-2-[6-chloro-1-(2-fluorobenzyl)-1H-indazol-3-yl]-5-methyl-6-oxo-6,7-dihydro-5H-pyrrolo[2,3-d]pyrimidin-5-yl}phenyl)ethanesulfonic acid] as the molecule, how does the Emax [1] read?
A: 98.2%

Q: Which Ki [2] does the source give for `CC(C)(Cc1csc(C2(C3CC3)C(=O)Nc3nc(-c4nn(CCCC(F)(F)F)c5ncc(F)cc45)nc(N)c32)n1)C(=O)O` (stereo not drawn) [Example 96B, 3-(2-{4-amino-5-cyclopropyl-2-[5-fluoro-1-(4,4,4-trifluorobutyl)-1H-pyrazolo[3,4-b]pyridin-3-yl]-6-oxo-6,7-dihydro-5H-pyrrolo[2,3-d]pyrimidin-5-yl}thiazol-4-yl)-2,2-dimethylpropanoic acid] here?
A: 12.2 nM

Q: And the Emax [1]?
A: 54%

Q: What about the EC50 ([1]; inflection point (IP) from 4P fit of percent activation) of the same molecule?
A: 311 nM

Q: `CC1(c2cn(C(C)(C)C(=O)O)nn2)C(=O)Nc2nc(-c3nn(Cc4ccccc4F)c4cc(Cl)ccc34)nc(N)c21` (single isomer, unassigned) [Example 141A, 2-(4-{4-Amino-2-[6-chloro-1-(2-fluorobenzyl)-1H-indazol-3-yl]-5-methyl-6-oxo-6,7-dihydro-5H-pyrrolo[2,3-d]pyrimidin-5-yl}-1H-1,2,3-triazol-1-yl)-2-methylpropanoic acid] was tested. Which Emax [1] did it give?
A: 98.7%

Q: For `CC1(c2cccc(-c3nn[nH]n3)c2)C(=O)Nc2nc(-c3nn(CCC(F)(F)C(F)(F)F)c4ncccc34)nc(N)c21` (single isomer, unassigned) [Example 252B, 4-amino-5-methyl-2-[1-(3,3,4,4,4-pentafluorobutyl)-1H-pyrazolo[3,4-b]pyridin-3-yl]-5-[3-(2H-tetrazol-5-yl)phenyl]-5,7-dihydro-6H-pyrrolo[2,3-d]pyrimidin-6-one], which Emax [1] is on record?
A: 87.6%

Q: How did the Emax [1] turn out when `CC1(c2ccc(CCc3nn[nH]n3)cn2)C(=O)Nc2nc(-c3nn(Cc4ccccc4F)c4cc(Cl)ccc34)nc(N)c21` (single isomer, unassigned) [Example 247A, 5-{5-[2-(2H-tetrazol-5-yl)ethyl]pyridin-2-yl}-4-amino-2-[6-chloro-1-(2-fluorobenzyl)-1H-indazol-3-yl]-5-methyl-5,7-dihydro-6H-pyrrolo[2,3-d]pyrimidin-6-one] was run?
A: 86.9%

Q: For `CC1(c2cccc(-c3nn[nH]n3)n2)C(=O)Nc2nc(-c3nn(Cc4ccccc4F)c4cc(Cl)ccc34)nc(N)c21` (single isomer, unassigned) [Example 253A, 5-[6-(2H-tetrazol-5-yl)pyridin-2-yl]-4-amino-2-[6-chloro-1-(2-fluorobenzyl)-1H-indazol-3-yl]-5-methyl-5,7-dihydro-6H-pyrrolo[2,3-d]pynmidin-6-one], which Emax [1] is on record?
A: 96.7%

Q: Which Emax [1] does the source give for `CC(C)(Cn1cc(C2(C)C(=O)Nc3nc(-c4nn(Cc5ccccc5F)c5cc(Cl)ccc45)nc(N)c32)nn1)C(=O)O` (single isomer, unassigned) [Example 140A, 3-(4-{4-Amino-2-[6-chloro-1-(2-fluorobenzyl)-1H-indazol-3-yl]-5-methyl-6-oxo-6,7-dihydro-5H-pyrrolo[2,3-d]pyrimidin-5-yl}-1H-1,2,3-triazol-1-yl)-2,2-dimethylpropanoic acid] here?
A: 99%

Q: For `CC1(c2nn(C(C)(C)C(=O)O)c(=O)o2)C(=O)Nc2nc(-c3nn(CCC(F)(F)C(F)(F)F)c4cc(Cl)ccc34)nc(N)c21` (single isomer, unassigned) [Example 99B, 2-[5-{4-Amino-2-[6-chloro-1-(3,3,4,4,4-pentafluorobutyl)-1H-indazol-3-yl]-5-methyl-6-oxo-6,7-dihydro-5H-pyrrolo[2,3-d]pyrimidin-5-yl}-2-oxo-1,3,4-oxadiazol-3(2H)-yl]-2-methylpropanoic acid], which Emax [1] is on record?
A: 110%

Q: Which Emax [1] does the source give for `CC1CCC(Cn2nc(-c3nc(N)c4c(n3)NC(=O)C4(C)c3nc(CC(C)(C)C(=O)O)co3)c3ccc(F)cc32)CC1` (racemic) [Example 137AA, 3-{2-[4-amino-2-{6-fluoro-1-[4-methylcyclohexylmethyl]-1H-indazol-3-yl}-5-methyl-6-oxo-6,7-dihydro-5H-pyrrolo[2,3-d]pyrimidin-5-yl]-1,3-oxazol-4-yl}-2,2-dimethylpropanoic acid] here?
A: 92.1%

Q: With `CC1(c2ccc(CCc3nn[nH]n3)cn2)C(=O)Nc2nc(-c3nn(Cc4ccccc4F)c4ccccc34)nc(N)c21` (single isomer, unassigned) [Example 246A, 5-{5-[2-(2H-tetrazol-5-yl)ethyl]pyridin-2-yl}-4-amino-2-[1-(2-fluorobenzyl)-1H-indazol-3-yl]-5-methyl-5,7-dihydro-6H-pyrrolo[2,3-d]pyrimidin-6-one] as the molecule, how does the Emax [1] read?
A: 95.3%

Q: How did the Emax [1] turn out when `CC(C)(Cc1coc(C2(C)C(=O)Nc3nc(-c4nn(CC5CCCCO5)c5ccccc45)nc(N)c32)n1)C(=O)O` (single isomer, unassigned) [Example 230AA, 3-{2-[4-amino-5-methyl-6-oxo-2-{1-[tetrahydro-2H-pyran-2-ylmethyl]-1H-indazol-3-yl}-6,7-dihydro-5H-pyrrolo[2,3-d]pyrimidin-5-yl]-1,3-oxazol-4-yl}-2,2-dimethylpropanoic acid] was run?
A: 99.1%

Q: With `CC1(N2CCC(CCC(=O)O)C2)C(=O)Nc2nc(-c3nn(Cc4ccccc4F)c4cc(Cl)ccc34)nc(N)c21` (single isomer, unassigned) [Example 261C, 3-[1-{4-Amino-2-[6-chloro-1-(2-fluorobenzyl)-1H-indazol-3-yl]-5-methyl-6-oxo-6,7-dihydro-5H-pyrrolo[2,3-d]pyrimidin-5-yl}pyrrolidin-3-yl]propanoic acid] as the molecule, how does the Emax [1] read?
A: 113%
